The values that follow come from patent publication US8932614B2, “Incorporation of particulate ceragenins in polymers” (priority 2011, dated 2015).

Test [1] relates to MRSA. Briefly: Coated titanium bone plugs in broth challenged with MRSA (planktonic, FIG. 4). Format: cell-based, methicillin-resistant Staphylococcus aureus. The note with it: for viable bacteria per tube: 4 and 8 hour time points, challenge ~5×10^8 CFU MRSA; for viable bacteria: 24 hour time point. Here is the method: To confirm that medical devices coated with the ceragenin-containing composites described herein are able to kill bacteria, various groups of titanium bone plugs were prepared. The titanium bone plugs were either uncoated, coated with MED-6607 ceragenin-containing silicone polymer prepared as described above, or with MED-6607 silicone polymer only. In the groups of bone plugs that were coated with ceragenin-containing silicone polymer, the silicone either contained 16 wt %, 18 wt %, or 20 wt % ceragenin. Specifically, the groups of bone plugs were as follows: • 0%—a titanium bone plug coated with silicone polymer with no ceragenin • 16%—a titanium bone plug coated with silicone polymer containing 16% CSA-13 (w/w) • 18%—a titanium bone plug coated with silicone polymer containing 18% CSA-13 (w/w) • […] • titanium—a titanium bone plug with no coating
The bone plugs were placed into broth (e.g., 30 ml of broth) and challenged with ˜5×10^8 colony forming units (CFU) of MRSA. In addition, a broth/MRSA-only control was prepared. Samples were withdrawn from each of the tubes at 0, 1, 2, 4, 8, 24, and 48 hours. The data for the 0, 1, 2, 4, 8, and 24 hour data points are graphed in FIG. 4.
In contrast, the 16% tubes each contained about 1×10^3 CFU and the 20% tubes each contained about 5×10^2 CFU.

The test system of test [2] is biofilms. The test can be described thus: Coated bone plates implanted into animals and challenged with biofilms. Format: in vivo, sheep. The note with it: CSA-13 coated stainless steel plates. From the text: Similar results were obtained in vivo when bone plates were coated with ceragenin-containing composites and were compared with bone plates coated with polymer only, then implanted into animals and challenged with biofilms. […] In contrast, 100% of animals who received polymer-only bone plates developed infection when they were infected with biofilms and bacterial loads in and around the infection site exceeded 10^6 bacterial cells per gram of tissue, which is well above the standard for infection.
In addition, histological sections were compared from animals receiving bone plates. […] Two sheep in Group 1 were euthanized after one week due to the severity of their infections. […] And while inflammation was present in sheep from all groups, with the highest level of inflammation being present in Group 1 sheep, this is a normal response to surgical trauma.

Turning to `CCCCCCCCNCCC[C@@H](C)[C@H]1CC[C@H]2[C@@H]3[C@H](OCCCN)C[C@@H]4C[C@H](OCCCN)CC[C@]4(C)[C@H]3C[C@H](OCCCN)[C@]12C` [CSA-13], the “viable bacteria per tube” value in test [1] (bone plug coated with silicone containing 16% CSA-13 (w/w)) is recorded as “about 1×10^3 CFU”; in test [1] (bone plug coated with silicone containing 18% CSA-13 (w/w)), “essentially no viable bacterial”; in test [1] (bone plug coated with silicone containing 20% CSA-13 (w/w)) it was “about 5×10^2 CFU”. Moreover, the viable bacteria result in test [1] (bone plug coated with silicone containing 16% CSA-13) was “considerable numbers of viable bacteria”; in test [1] (bone plug coated with silicone containing 20% CSA-13, compared with 18%), “caught up to the 18”. For the same compound, in test [1] (tubes containing a bone plug with CSA-13 (16%, 18% and 20%), 0-24 h), the “numbers of viable bacteria (CFU/ml) over time” value is recorded as “dropped dramatically”. In addition, the “sheep showing signs of osteomyelitis (histology)” value in test [2] (Group 2 (n=9): biofilm) and in test [2] (Group 4 (n=8): no biofilm) was “none” in each case.
